Measurements as given in article PMC7028811, “Biopharmaceutical Understanding of Excipient Variability on Drug Apparent Solubility Based on Drug Physicochemical Properties: Case Study—Hypromellose (HPMC)” (The AAPS Journal, 2020).
Values after ≈ are worked out from the molar mass of the structure shown. Where two headings read alike, the source gives them in different places. Marks after values point to notes of the source that are not given here.

Legend:
[1] = Relative effect (RE) of HPMC brands on drug apparent solubility, shake-flask with drug/excipient physical mixtures; format: physicochemical; details: FaSSIF-V2
Protocol: (§1) Compendial media (0.1 N HCl pH 1, phosphate buffer pH 6.8) were prepared according to the method described in the European Pharmacopoeia ([43]). Fasted State Simulated Gastric Fluid (FaSSGF) and Fasted State Simulated Intestinal Fluid (FaSSIF-V2) were prepared as described by Jantratid et al. ([44]).
Drug solubility studies in the absence and presence of excipient were performed in triplicate using the shake-flask method ([45]). Drug excess amount and 2% w/w or 5% w/w of each excipient were weighed and placed in centrifuge tubes. […] The physical mixtures were vortexed for 3 min. Five millilitres of each medium was added in the tubes and the samples were placed in a shaking water bath (37 °C, 200 strokes per minute (spm)). […] Filter adsorption studies were prior performed in triplicate for each drug. […] Filtered samples were further diluted (if needed) with the corresponding medium and analysed by HPLC (Supplementary Table I). Analytical procedures for drug quantification in the samples were modifications of already published methods. Drug quantification was made based on calibration curves. […] As drug solubility can be influenced by the changes in the pH of solutions by presence of dissolved drug ([38]), the pH of samples after the completion of each experiment was measured. Drug solubility was calculated based on the sample drug concentration measured.

[2] = Theoretical % of drug ionized (Henderson-Hasselbalch equation at the pH of each medium); format: physicochemical
[3] = cited from earlier work; for Solubility (BCS classification): based on the compound's BCS classification; for Lipophilicity (log P): experimental values
[4] = Shake-flask drug solubility in absence of excipient (reference solubility); format: physicochemical; details: for solubility at 0.5 h: 37 °C, read-out: Solubility of pure drug
Protocol: as §1
Drug solubility studies in the absence and presence of excipient were performed in triplicate using the shake-flask method ([45]). Drug excess amount and 2% w/w or 5% w/w of each excipient were weighed and placed in centrifuge tubes. […] The physical mixtures were vortexed for 3 min. Five millilitres of each medium was added in the tubes and the samples were placed in a shaking water bath (37 °C, 200 strokes per minute (spm)). […] Filter adsorption studies were prior performed in triplicate for each drug. […] Filtered samples were further diluted (if needed) with the corresponding medium and analysed by HPLC (Supplementary Table I). Analytical procedures for drug quantification in the samples were modifications of already published methods. Drug quantification was made based on calibration curves. Standards were formulated from concentrated stock solutions consisting of drug dissolved in MeOH. As drug solubility can be influenced by the changes in the pH of solutions by presence of dissolved drug ([38]), the pH of samples after the completion of each experiment was measured. Drug solubility was calculated based on the sample drug concentration measured.

SMILES: OCCN(CCO)c1nc(N2CCCCC2)c2nc(N(CCO)CCO)nc(N3CCCCC3)c2n1 [DPL, dipyridamole]
- Effect of HPMC presence on drug apparent solubility [1]: did not affect
- % of drug ionized ([2]; FaSSIF-V2): 34%
- % of drug ionized ([2]; phosphate buffer pH 6.8): 20.1%
- Solubility (BCS classification) [3]: Low ([38])

SMILES: NC(=O)N1c2ccccc2C=Cc2ccccc21 [CBZ, carbamazepine]
- solubility at 0.5 h ([4]; pH 1.6, fassgf or other biorelevant, thermodynamic from solid, FaSSGF, 0.5 h): 387 µg/mL (≈ 1640 µM)
- solubility at 0.5 h ([4]; pH 6.5, thermodynamic from solid, FaSSIF-V2, 0.5 h): 307 µg/mL (≈ 1300 µM)
- Relative effect (RE) on drug apparent solubility ([1]; all the studied HPMC brands, 24 h): approximately 60%
- Solubility (BCS classification) [3]: Low ([30])
- Lipophilicity (log P) [3]: 2.45 ([29])
- pKa ([3]; ref DrugBank): Neutral (pKa=15)^a

SMILES: CC(C)Cc1ccc(C(C)C(=O)O)cc1 (centres unmarked) [IBU, Ibuprofen]
- Lipophilicity (log P) [3]: 4.00 ([33])

SMILES: CC(=O)Nc1ccc(O)cc1 [PRC, paracetamol]
- pKa [3]: Neutral (pKa=9.38) ([28])
- Lipophilicity (log P) [3]: 0.20 ([28])

SMILES: CCC(C)n1ncn(-c2ccc(N3CCN(c4ccc(OCC5COC(Cn6cncn6)(c6ccc(Cl)cc6Cl)O5)cc4)CC3)cc2)c1=O (centres unmarked) [ITZ, itraconazole]
- solubility at 24 h ([4]; aqueous buffer, thermodynamic from solid, Phosphate buffer pH 6.8, 37 °C, mean ± SD, n = 3): < 0.015 µg/mL
- Solubility (BCS classification) [3]: Low ([40])
- pKa [3]: Weak base (pKa=4.5) ([39])
- Lipophilicity (log P) [3]: 6.20 ([39])
